Our source for the IC50 values is ChEMBL document CHEMBL4828721, “Substituted dienes prepared from betulinic acid - Synthesis, cytotoxicity, mechanism of action, and pharmacological parameters” (Eur J Med Chem, 2021).

In one assay the test system is HCT-116. The experiment in a line: Cytotoxicity against human HCT-116 cells assessed as reduction in cell viability measured after 72 hrs by MTS assay. It is filed as functional, cell-based. The conditions noted are these: HCT-116, 72 h. (Tetrazolium dyes change colour on reduction, which living cells bring about.)
Another assay relates to CEM-DNR. The assay is described as follows: Cytotoxicity against daunorubicin resistant human CEM-DNR cells assessed as reduction in cell viability measured after 72 hrs by MTS assay. It counts as functional, cell-based.
The next assay relates to CCRF-CEM. The experiment in a line: Cytotoxicity against human CCRF-CEM cells assessed as reduction in cell viability measured after 72 hrs by MTS assay. It is filed as functional, cell-based.
A further assay concerns U2OS. The experiment in a line: Cytotoxicity against human U2OS cells assessed as reduction in cell viability measured after 72 hrs by MTS assay. It counts as functional, cell-based.
In the next assay the test system is BJ. The experiment in a line: Cytotoxicity against human BJ cells assessed as reduction in cell viability measured after 72 hrs by MTS assay. It is filed as cell-based.
Another assay deals with A549. The assay is described as follows: Cytotoxicity against human A549 cells assessed as reduction in cell viability measured after 72 hrs by MTS assay. It counts as functional, cell-based. The conditions noted are these: A549, 72 h.
The nature of assay [1]: Cytotoxicity against human HCT116 p53-null cells assessed as reduction in cell viability measured after 72 hrs by MTS assay. It is filed as functional, cell-based.
In another assay the test system is MRC5. The experiment in a line: Cytotoxicity against human MRC5 cells assessed as reduction in cell viability measured after 72 hrs by MTS assay. It is filed as cell-based. The conditions noted are these: MRC5, 72 h.
The next assay concerns K562. The assay is described as follows: Cytotoxicity against human K562 cells assessed as reduction in cell viability measured after 72 hrs by MTS assay. It is filed as functional, cell-based. Conditions: K562, 72 h.
Assay [2] is described as follows: Cytotoxicity against paclitaxel resistant human K562-Tax cells assessed as reduction in cell viability measured after 72 hrs by MTS assay. It is filed as functional, cell-based.

For orientation: IC50 means the concentration that inhibits the measured activity by half. `C=CC(=C)[C@@H]1CC[C@]2(C(=O)O)CC[C@]3(C)[C@H](CC[C@@H]4[C@@]5(C)CC[C@H](O)C(C)(C)[C@@H]5CC[C@]43C)[C@@H]12`: the half-maximal inhibitory concentration (IC50) in the assay with HCT-116 was found to be 24.1 µM; in the assay with CEM-DNR it was 25.1 µM; in the assay on CCRF-CEM it was 11.1 µM; in the assay with U2OS, 24.1 µM; with BJ, 44.6 µM; in the assay on A549 it was 23.9 µM. Further, the half-inhibitory concentration (IC50) in assay [1] came to 24.3 µM; in the assay with MRC5, 24.3 µM; in the assay on K562, 15.7 µM; in assay [2], 26.2 µM.
As to `C=C(/C=C/c1ccccc1C(F)(F)F)[C@@H]1CC[C@]2(C(=O)O)CC[C@]3(C)[C@H](CC[C@@H]4[C@@]5(C)CC[C@H](O)C(C)(C)[C@@H]5CC[C@]43C)[C@@H]12`, the half-inhibitory concentration (IC50) in the assay with HCT-116 was 33 µM; in the assay with CEM-DNR, greater than 50 µM; in the assay on CCRF-CEM, 21.8 µM; in the assay on U2OS, 29.6 µM; in the assay on BJ it was greater than 50 µM; with A549 it was 37 µM. Moreover, the IC50 was 36.1 µM in assay [1], greater than 50 µM in the assay on MRC5, 48.7 µM with K562 and greater than 50 µM in assay [2].
`C=C(/C=C/c1cccc(Br)c1)[C@@H]1CC[C@]2(C(=O)O)CC[C@]3(C)[C@H](CC[C@@H]4[C@@]5(C)CC[C@H](O)C(C)(C)[C@@H]5CC[C@]43C)[C@@H]12`: the 50% inhibitory concentration (IC50) with HCT-116 is 25.3 µM; with CEM-DNR it was 35.9 µM; in the assay with CCRF-CEM it was 8.8 µM; with U2OS, 27.6 µM; with BJ, greater than 50 µM; in the assay on A549 it was 33.1 µM. Further, the IC50 in [1] was 26.8 µM; in the assay on MRC5, greater than 50 µM; in the assay with K562, 23.6 µM; in [2] it was 32.8 µM.
Consider `C=C(/C=C/c1ccccc1C)[C@@H]1CC[C@]2(C(=O)O)CC[C@]3(C)[C@H](CC[C@@H]4[C@@]5(C)CC[C@H](O)C(C)(C)[C@@H]5CC[C@]43C)[C@@H]12`, for which the IC50 with HCT-116 was 29.7 µM; with CEM-DNR, 22.8 µM; in the assay on CCRF-CEM, 19.1 µM; with U2OS, 28 µM; in the assay with BJ, 33 µM; in the assay on A549, 26.8 µM. Also, the IC50 in assay [1] came to 25.9 µM; in the assay with MRC5, 31.5 µM; with K562 it was 28.1 µM; in assay [2], 25.9 µM.
Regarding `C=C(/C=C/c1ccccc1Cl)[C@@H]1CC[C@]2(C(=O)O)CC[C@]3(C)[C@H](CC[C@@H]4[C@@]5(C)CC[C@H](O)C(C)(C)[C@@H]5CC[C@]43C)[C@@H]12`, the IC50 with HCT-116 was found to be 26.6 µM; with CEM-DNR, 42.1 µM; in the assay with CCRF-CEM, 18.7 µM; in the assay on U2OS it was 28.1 µM; in the assay with BJ it was 42.3 µM; with A549 it was 29.4 µM. The half-inhibitory concentration (IC50) was 24.8 µM in assay [1], 32.6 µM in the assay on MRC5, 23.9 µM with K562 and 39.3 µM in assay [2].
With `C=C(/C=C/c1ccc(Cl)cc1)[C@@H]1CC[C@]2(C(=O)O)CC[C@]3(C)[C@H](CC[C@@H]4[C@@]5(C)CC[C@H](O)C(C)(C)[C@@H]5CC[C@]43C)[C@@H]12`, the IC50 in the assay with HCT-116 was 39.5 µM; in the assay on CEM-DNR, 33.1 µM; in the assay with CCRF-CEM, 5.4 µM; with U2OS it was 25.8 µM; with BJ, greater than 50 µM; in the assay on A549 it was 45.4 µM. Besides, the IC50 in assay [1] was 38.5 µM; with MRC5, greater than 50 µM; with K562, 46.3 µM; in assay [2], 29.2 µM.
As to `C=C(/C=C/c1cccc(OC)c1)[C@@H]1CC[C@]2(C(=O)O)CC[C@]3(C)[C@H](CC[C@@H]4[C@@]5(C)CC[C@H](O)C(C)(C)[C@@H]5CC[C@]43C)[C@@H]12`, the IC50 with HCT-116 is 34.6 µM; in the assay with CEM-DNR it was 30.6 µM; with CCRF-CEM, 4.6 µM; in the assay on U2OS it was 25.2 µM; in the assay with BJ, greater than 50 µM; with A549 it was 40.1 µM. Also, the IC50 in assay [1] amounted to 39.6 µM; in the assay on MRC5, 44.1 µM; in the assay on K562 it was 41.4 µM; in [2], 25.6 µM.
On to `C=C(/C=C/c1ccc(I)cc1)[C@@H]1CC[C@]2(C(=O)O)CC[C@]3(C)[C@H](CC[C@@H]4[C@@]5(C)CC[C@H](O)C(C)(C)[C@@H]5CC[C@]43C)[C@@H]12`, for which the 50% inhibitory concentration (IC50) in the assay on HCT-116 is 30.7 µM; in the assay with CEM-DNR, greater than 50 µM; with CCRF-CEM, 16 µM; with U2OS it was 32.2 µM; in the assay on BJ, greater than 50 µM; with A549, greater than 50 µM. Also, the IC50 in assay [1] was 33.3 µM; in the assay with MRC5 it was 41.2 µM; in the assay with K562, greater than 50 µM; in assay [2], greater than 50 µM.
With `C=C(/C=C/c1cccc(C#N)c1)[C@@H]1CC[C@]2(C(=O)O)CC[C@]3(C)[C@H](CC[C@@H]4[C@@]5(C)CC[C@H](O)C(C)(C)[C@@H]5CC[C@]43C)[C@@H]12`, the IC50 was 35.1 µM in the assay with HCT-116; 21.6 µM in the assay on CEM-DNR; 12.1 µM in the assay on CCRF-CEM; greater than 50 µM with U2OS; greater than 50 µM with BJ; greater than 50 µM in the assay with A549. The IC50 in assay [1] is 29.4 µM; in the assay on MRC5, greater than 50 µM; in the assay on K562, greater than 50 µM; in [2] it was 22.7 µM.
In the case of `C=C(/C=C/c1ccc(F)cc1)[C@@H]1CC[C@]2(C(=O)O)CC[C@]3(C)[C@H](CC[C@@H]4[C@@]5(C)CC[C@H](O)C(C)(C)[C@@H]5CC[C@]43C)[C@@H]12`, the concentration for half-maximal inhibition (IC50) in the assay with HCT-116 is 35.4 µM; in the assay on CEM-DNR, 31.4 µM; in the assay on CCRF-CEM it was 4.9 µM; in the assay with U2OS it was 23.9 µM; with BJ, 44.6 µM; with A549 it was 40.6 µM. The IC50 in assay [1] worked out at 41 µM; in the assay with MRC5, 38.3 µM; in the assay on K562, 36.2 µM; in [2], 29.8 µM.
Consider `C=C(/C=C/c1ccc(C(C)(C)C)cc1)[C@@H]1CC[C@]2(C(=O)O)CC[C@]3(C)[C@H](CC[C@@H]4[C@@]5(C)CC[C@H](O)C(C)(C)[C@@H]5CC[C@]43C)[C@@H]12`, for which the IC50 was greater than 50 µM in the assay on HCT-116; greater than 50 µM in the assay on CEM-DNR; 45.6 µM in the assay on CCRF-CEM; 45.1 µM with U2OS; greater than 50 µM in the assay with BJ; greater than 50 µM in the assay with A549. Moreover, the IC50 (in assay [1]; with MRC5; in the assay on K562; in [2]) was greater than 50 µM throughout.
As to `C=C(/C=C/c1ccccc1[N+](=O)[O-])[C@@H]1CC[C@]2(C(=O)O)CC[C@]3(C)[C@H](CC[C@@H]4[C@@]5(C)CC[C@H](O)C(C)(C)[C@@H]5CC[C@]43C)[C@@H]12`, the IC50 in the assay with HCT-116 is 34.8 µM; in the assay with CEM-DNR, 30.6 µM; in the assay on CCRF-CEM, 23.7 µM; with U2OS it was 33.1 µM; with BJ, greater than 50 µM; with A549, 45.2 µM. For the same molecule, the concentration for half-maximal inhibition (IC50) in assay [1] is 39.3 µM; in the assay on MRC5, greater than 50 µM; in the assay on K562, greater than 50 µM; in assay [2], 29.8 µM.
As to `C=C(/C=C/C1CCCCC1)[C@@H]1CC[C@]2(C(=O)O)CC[C@]3(C)[C@H](CC[C@@H]4[C@@]5(C)CC[C@H](O)C(C)(C)[C@@H]5CC[C@]43C)[C@@H]12`, the IC50 in the assay on HCT-116 was 15.2 µM; with CEM-DNR, 45.7 µM; with CCRF-CEM, 8 µM; in the assay on U2OS it was greater than 50 µM; in the assay on BJ, greater than 50 µM; in the assay on A549 it was greater than 50 µM. Further, the half-inhibitory concentration (IC50) in assay [1] is greater than 50 µM; in the assay on MRC5, greater than 50 µM; in the assay with K562, greater than 50 µM; in assay [2], 43.6 µM.
As for `C=C(/C=C/c1ccccc1I)[C@@H]1CC[C@]2(C(=O)O)CC[C@]3(C)[C@H](CC[C@@H]4[C@@]5(C)CC[C@H](O)C(C)(C)[C@@H]5CC[C@]43C)[C@@H]12`, the concentration for half-maximal inhibition (IC50) in the assay on HCT-116 was 29.6 µM; in the assay with CEM-DNR, greater than 50 µM; in the assay with CCRF-CEM, 20.6 µM; in the assay with U2OS it was 28.5 µM; in the assay on BJ it was greater than 50 µM; in the assay with A549, 29.7 µM. In addition, the IC50 was 29.5 µM in assay [1], 29.5 µM in the assay with MRC5, 25.1 µM in the assay with K562 and greater than 50 µM in [2].
`C=C(/C=C/c1ccc2ccccc2c1)[C@@H]1CC[C@]2(C(=O)O)CC[C@]3(C)[C@H](CC[C@@H]4[C@@]5(C)CC[C@H](O)C(C)(C)[C@@H]5CC[C@]43C)[C@@H]12`: the IC50 with HCT-116 was 30.2 µM; with CEM-DNR, 47 µM; in the assay with CCRF-CEM, 11.8 µM; in the assay with U2OS, 27.2 µM; in the assay with BJ, greater than 50 µM; with A549 it was 32.9 µM. Moreover, the IC50 in assay [1] was 26.3 µM; in the assay with MRC5 it was 43.1 µM; with K562, greater than 50 µM; in [2], 45.8 µM.
Consider `C=C(/C=C/c1ccccc1C#N)[C@@H]1CC[C@]2(C(=O)O)CC[C@]3(C)[C@H](CC[C@@H]4[C@@]5(C)CC[C@H](O)C(C)(C)[C@@H]5CC[C@]43C)[C@@H]12`, for which the IC50 in the assay with HCT-116 was 36.6 µM; with CEM-DNR, 26.8 µM; with CCRF-CEM, 23.2 µM; with U2OS, 40.4 µM; in the assay with BJ, greater than 50 µM; in the assay on A549 it was greater than 50 µM. Moreover, the half-maximal inhibitory concentration (IC50) in assay [1] was 47 µM; in the assay on MRC5 it was greater than 50 µM; with K562 it was greater than 50 µM; in assay [2], 24.8 µM.
